From US20210228562A1, “IRAK DEGRADERS AND USES THEREOF” (Kymera Therapeutics, Inc., priority 2019, published 2021) come the findings set out here.

Structures are written as SMILES.

For the first assay, the target named is T1, IRAK4 (Homo sapiens, UniProt Q9NWZ3).
T1 construct: endogenous in cells; host or cells: OCI-LY10
T1 sequence (Q9NWZ3 1-460): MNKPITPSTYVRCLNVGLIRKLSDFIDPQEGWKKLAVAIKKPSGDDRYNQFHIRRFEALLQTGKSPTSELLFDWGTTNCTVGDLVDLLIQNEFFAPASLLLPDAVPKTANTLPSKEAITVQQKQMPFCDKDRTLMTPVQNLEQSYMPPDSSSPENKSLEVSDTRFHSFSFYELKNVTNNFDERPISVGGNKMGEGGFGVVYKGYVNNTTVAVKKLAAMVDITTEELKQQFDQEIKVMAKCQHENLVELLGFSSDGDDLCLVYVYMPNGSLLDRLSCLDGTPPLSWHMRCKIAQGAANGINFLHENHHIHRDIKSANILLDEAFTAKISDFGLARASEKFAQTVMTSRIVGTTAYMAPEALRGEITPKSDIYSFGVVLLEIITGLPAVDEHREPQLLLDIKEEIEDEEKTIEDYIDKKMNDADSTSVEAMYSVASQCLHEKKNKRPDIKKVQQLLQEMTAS
Nature of the assay: IRAK4 MSD Degradation in OCI-LY10. The assay is classed as cell-based. As to conditions: OCI-LY10 cells, 24 hrs incubation; read-out: IRAK4 degradation in OCI-LY10 at 24 hrs: DC50. How it is done: Degradation of IRAK4 in OCI-LY10 was quantitatively measured using Meso Scale Discovery technology. OCI-LY10 cells were seeded in 96-well plates (Corning 3799) with a density of 300,000 cells per well in 100 μL fresh media. Compounds were then added to the assay plates with a final top concentration of 1 to 10 μM in a 1:3 dilution series with total of 8 doses. The assay plates were then incubated for 4 to 24 hours at 37° C. under 5% CO2. The assay plates were then centrifuged for 5 minutes and the cell pellets were treated with 100 μL/well RIPA lysis buffer (Boston BioProducts BP-115D) with proteinase inhibitors. To prepare MSD assay plates (Meso Scale Discovery Catalog number L15XA-3), the plates were coated with 2 μg/mL capture antibody (mouse Anti-IRAK4 antibody [2H9], ab119942) in PBS, at 40 μL/well. The plates were then incubated overnight at 4° C., washed 3 times with 150 μL/well TBST buffer (Cell Signaling Technology, Catalog number 9997S) and blocked with 150 μL/well blocking buffer (Meso Scale Discovery Catalog number R93BA-4). Cell lysates were then added to MSD assay plates and the plates were incubated at room temperature for 1 hour. The plates were then washed 3 times with 150 μL/well TBST buffer and 25 μL/well primary detection antibody (rabbit Anti-IRAK4 antibody [Y279], from Abcam. Catalog number ab32511, 1 μg/mL). The assay plates were then incubated at room temperature for 1 hour, washed 3 times with 150 μL/well TBST buffer and 25 μL/well secondary detection antibody, SULFO-TAG anti-rabbit antibody were added (anti rabbit antibody from Meso Scale Discovery, Catalog number R32AB-1, 1 μg/mL). The assay plates were then incubated at room temperature for 1 hour, washed 3 times with 150 μL/well TBST buffer, and 150 μL/well MSD reading buffer (Meso Scale Discovery catalog number R92TC-2) was added. The plates were then analyzed by a MSD reader (Meso Scale Discovery, Model Quick Plex SQ 120). The data was then analyzed by software Prism 7.0 from GraphPad and the dose-depended IRAK4 degradation were fit using a three-parameter logistic equation to calculate DC50.
For the compound `CN(C[C@H]1CC[C@H](c2nc3cc(C(C)(C)O)c(NC(=O)c4cccc(C(F)(F)F)n4)cc3s2)CC1)[C@H]1CC[C@]2(CC1)C[C@@H](CNc1cccc3c1C(=O)N(C1CCC(=O)NC1=O)C3=O)C2` (stereo partly shown) [I-25], the 50% degradation concentration (DC50) – broadly, the concentration giving 50% degradation – fell in the range of 50 to 100 nM.
The same measure, in the same setting: then `CC(C)(O)c1cc2nc([C@H]3CC[C@H](CN4CC5(CC(CNc6cccc7c6C(=O)N(C6CCC(=O)NC6=O)C7=O)C5)C4)CC3)sc2cc1NC(=O)c1cccc(C(F)(F)F)n1` (stereo partly shown) [I-26], with less than 50 nM; and `CN(C[C@H]1CC[C@H](c2nc3cc(C(C)(C)O)c(NC(=O)c4cccc(C(F)(F)F)n4)cc3s2)CC1)[C@H]1CC[C@H](CCNc2cccc3c2C(=O)N(C2CCC(=O)NC2=O)C3=O)CC1` (stereo partly shown) [I-27], with less than 50 nM; and `CN(C[C@H]1CC[C@H](c2nc3cc(C(C)(C)O)c(NC(=O)c4cccc(C(F)(F)F)n4)cc3s2)CC1)[C@H]1CC[C@H](Nc2cccc3c2C(=O)N(C2CCC(=O)NC2=O)C3=O)CC1` (stereo partly shown) [I-28], with less than 50 nM.

The target of a further assay is T2, Ikaros (protein product of gene IKZF1) (Homo sapiens, UniProt Q13422+Q96SW2).
T2 construct: endogenous in cells; host or cells: OCI-LY10
T2 sequence (Q13422 whole entry): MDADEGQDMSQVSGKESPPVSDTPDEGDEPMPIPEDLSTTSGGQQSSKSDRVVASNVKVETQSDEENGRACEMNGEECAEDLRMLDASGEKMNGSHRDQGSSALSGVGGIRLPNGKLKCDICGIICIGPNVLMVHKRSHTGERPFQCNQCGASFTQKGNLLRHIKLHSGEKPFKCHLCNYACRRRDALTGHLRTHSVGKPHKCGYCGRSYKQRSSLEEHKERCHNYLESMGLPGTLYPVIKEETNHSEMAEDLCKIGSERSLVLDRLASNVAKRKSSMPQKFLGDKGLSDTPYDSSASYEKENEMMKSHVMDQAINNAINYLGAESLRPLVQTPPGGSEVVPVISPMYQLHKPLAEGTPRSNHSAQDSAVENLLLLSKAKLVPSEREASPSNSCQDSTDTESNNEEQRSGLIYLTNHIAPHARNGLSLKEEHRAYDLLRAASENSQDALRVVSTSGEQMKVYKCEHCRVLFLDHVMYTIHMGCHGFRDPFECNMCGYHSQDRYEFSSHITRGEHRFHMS
T2 sequence (Q96SW2 whole entry): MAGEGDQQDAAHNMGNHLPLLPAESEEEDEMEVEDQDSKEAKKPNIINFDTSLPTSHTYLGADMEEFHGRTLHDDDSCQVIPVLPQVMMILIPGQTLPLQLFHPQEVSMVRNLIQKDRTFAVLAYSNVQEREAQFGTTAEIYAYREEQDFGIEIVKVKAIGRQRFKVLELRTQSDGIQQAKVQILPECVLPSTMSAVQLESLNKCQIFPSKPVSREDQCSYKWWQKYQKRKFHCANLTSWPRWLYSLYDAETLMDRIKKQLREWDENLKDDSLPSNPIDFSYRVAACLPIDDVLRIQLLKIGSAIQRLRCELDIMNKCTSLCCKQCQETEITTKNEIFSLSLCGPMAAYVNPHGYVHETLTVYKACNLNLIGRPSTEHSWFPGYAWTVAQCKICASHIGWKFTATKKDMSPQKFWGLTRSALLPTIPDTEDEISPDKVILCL
T2 sequence (Q16531 whole entry partner): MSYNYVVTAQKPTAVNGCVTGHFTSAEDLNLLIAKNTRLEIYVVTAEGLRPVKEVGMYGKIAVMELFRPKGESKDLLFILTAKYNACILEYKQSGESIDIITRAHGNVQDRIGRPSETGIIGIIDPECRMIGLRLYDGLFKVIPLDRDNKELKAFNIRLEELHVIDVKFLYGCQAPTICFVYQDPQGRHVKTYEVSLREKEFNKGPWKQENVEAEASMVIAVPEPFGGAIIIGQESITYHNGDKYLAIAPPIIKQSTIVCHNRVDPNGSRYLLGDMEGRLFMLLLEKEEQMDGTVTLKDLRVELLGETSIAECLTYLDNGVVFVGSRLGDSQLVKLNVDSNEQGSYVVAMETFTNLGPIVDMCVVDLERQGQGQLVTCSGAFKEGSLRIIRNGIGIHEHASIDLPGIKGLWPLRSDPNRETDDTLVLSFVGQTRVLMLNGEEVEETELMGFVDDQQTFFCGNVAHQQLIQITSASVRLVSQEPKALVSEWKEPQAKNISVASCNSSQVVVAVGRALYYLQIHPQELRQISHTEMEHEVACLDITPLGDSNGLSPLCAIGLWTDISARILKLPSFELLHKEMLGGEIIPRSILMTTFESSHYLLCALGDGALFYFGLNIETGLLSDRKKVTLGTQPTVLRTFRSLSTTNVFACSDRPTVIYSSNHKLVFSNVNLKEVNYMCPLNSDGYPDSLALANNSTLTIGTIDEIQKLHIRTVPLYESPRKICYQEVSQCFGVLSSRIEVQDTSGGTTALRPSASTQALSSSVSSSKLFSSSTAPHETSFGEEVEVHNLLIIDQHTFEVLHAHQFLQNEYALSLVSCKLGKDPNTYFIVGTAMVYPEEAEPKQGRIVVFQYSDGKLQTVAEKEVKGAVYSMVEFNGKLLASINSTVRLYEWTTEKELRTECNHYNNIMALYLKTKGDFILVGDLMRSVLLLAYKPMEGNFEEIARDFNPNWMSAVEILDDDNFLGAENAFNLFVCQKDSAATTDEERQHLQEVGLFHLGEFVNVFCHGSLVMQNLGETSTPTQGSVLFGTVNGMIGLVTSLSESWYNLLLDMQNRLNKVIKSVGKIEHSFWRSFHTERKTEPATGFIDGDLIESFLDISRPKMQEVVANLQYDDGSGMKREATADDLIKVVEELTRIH
Nature of the assay: Quantification of Ikaros degradation in OCI-LY10 cells (quantitative immunoblotting). The assay is classed as cell-based. As to conditions: 6 h treatment. The method, then:
(§1) Degradation of Ikaros (protein product of gene IKZF1) and Aiolos (protein product of gene IKZF3) were determined by quantitative immunoblotting as follows. OCI-LY10 cells, 2×10^6 cells/well, were treated with listed concentrations of IRAK4 degraders or control compounds in 6 well plates for 6 h. Cells were collected, washed with cold PBS, lysed in RIPA buffer (Boston BioProducts BP-115D) with protease/phosphatase inhibitor cocktail (Roche 05892791001/Roche 04906837001) and centrifuged at 13000 RPM for 20 min to precipitate insoluble material. The supernatant fraction was diluted in SDS-PAGE loading buffer (Beyotime Bio P0015) and 20 μL of each sample was resolved on 4-12% Bis-Tris SDS-PAGE gels (Novex, WG1402BOX). Resolved samples were transferred to nitrocellulose membranes by wet electro-transfer method at 250 mV for 1.5 h. The membrane was blocked with LICOR blocking buffer (LI-COR, 927-50000) for 1 hour, washed three times with TBST (CST #99975) for 5 minutes each and incubated with primary antibody prepared in block buffer with 0.1% Tween-20 (Solarbio, P8220) at 4° C. overnight. Ikaros antibody was rabbit monoclonal D6N9Y (CST #14859), at 1:1000 dilution. Aiolos antibody was rabbit monoclonal D1C1E (CST #15103), at 1:1000 dilution. Signal was normalized to mouse anti-beta-Actin monoclonal 8H10D10 (CST #3700) used at 1:10,000 dilution. After incubation in primary antibodies, membranes were washed three times with TBST, 5 minutes each, incubated with fluorescently labeled secondary antibodies anti-rabbit IgG (Licor, 926-32211) at 1:5000 dilution; anti-mouse IgG (LI-COR, 926-68070) at 1:5000 dilution, for 1 hour at RT. After incubation in secondary, membranes were washed three times with TBST, 5 minutes each and read on LICOR Odyssey imager. Data was reported as signal for Ikaros or Aiolos relative to signal for actin, and normalized to DMSO-treated control.
For orientation: A western blot detects proteins with antibodies after separation by electrophoresis.
Take `CN(C[C@H]1CC[C@H](c2nc3cc(C(C)(C)O)c(NC(=O)c4cccc(C(F)(F)F)n4)cc3s2)CC1)[C@H]1CC[C@]2(CC1)C[C@@H](CNc1cccc3c1C(=O)N(C1CCC(=O)NC1=O)C3=O)C2` (stereo partly shown) [I-25]: the DC50 is less than 50 nM.
The same measure, in the same setting: the figure for `CC(C)(O)c1cc2nc([C@H]3CC[C@H](CN4CC5(CC(CNc6cccc7c6C(=O)N(C6CCC(=O)NC6=O)C7=O)C5)C4)CC3)sc2cc1NC(=O)c1cccc(C(F)(F)F)n1` (stereo partly shown) [I-26] is less than 50 nM; for `CN(C[C@H]1CC[C@H](c2nc3cc(C(C)(C)O)c(NC(=O)c4cccc(C(F)(F)F)n4)cc3s2)CC1)[C@H]1CC[C@H](CCNc2cccc3c2C(=O)N(C2CCC(=O)NC2=O)C3=O)CC1` (stereo partly shown) [I-27] it is less than 50 nM.
On the same count and under the same terms, then `CN(C[C@H]1CC[C@H](c2nc3cc(C(C)(C)O)c(NC(=O)c4cccc(C(F)(F)F)n4)cc3s2)CC1)[C@H]1CC[C@H](Nc2cccc3c2C(=O)N(C2CCC(=O)NC2=O)C3=O)CC1` (stereo partly shown) [I-28], with 50 to 100 nM.

Another assay deals with T3, Aiolos (protein product of gene IKZF3) (Homo sapiens, UniProt Q96SW2+Q9UKT9).
T3 construct: endogenous in cells; host or cells: OCI-LY10
T3 sequence (Q9UKT9 whole entry): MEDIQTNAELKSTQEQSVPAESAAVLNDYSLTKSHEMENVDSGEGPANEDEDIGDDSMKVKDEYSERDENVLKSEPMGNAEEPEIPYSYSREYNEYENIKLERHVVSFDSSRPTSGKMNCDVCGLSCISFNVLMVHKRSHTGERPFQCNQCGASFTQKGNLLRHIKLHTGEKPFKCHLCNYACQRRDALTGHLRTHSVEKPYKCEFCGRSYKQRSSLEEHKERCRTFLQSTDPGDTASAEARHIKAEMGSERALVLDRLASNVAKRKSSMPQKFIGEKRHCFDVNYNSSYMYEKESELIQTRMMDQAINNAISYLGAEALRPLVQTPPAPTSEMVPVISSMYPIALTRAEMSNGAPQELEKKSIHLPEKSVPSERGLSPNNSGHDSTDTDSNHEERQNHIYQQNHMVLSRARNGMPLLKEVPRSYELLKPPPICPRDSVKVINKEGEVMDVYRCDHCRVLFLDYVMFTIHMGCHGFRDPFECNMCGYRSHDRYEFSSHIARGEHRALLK
T3 sequence (Q96SW2 whole entry): as the sequence (Q96SW2 whole entry) above
T3 sequence (Q16531 whole entry partner): as the sequence (Q16531 whole entry partner) above
Nature of the assay: Quantification of Aiolos degradation in OCI-LY10 cells (quantitative immunoblotting). The assay is classed as cell-based. As to conditions: 6 h treatment. How it is done: as §1
As for `CN(C[C@H]1CC[C@H](c2nc3cc(C(C)(C)O)c(NC(=O)c4cccc(C(F)(F)F)n4)cc3s2)CC1)[C@H]1CC[C@]2(CC1)C[C@@H](CNc1cccc3c1C(=O)N(C1CCC(=O)NC1=O)C3=O)C2` (stereo partly shown) [I-25], the half-maximal degradation concentration (DC50) is less than 50 nM.
For `CC(C)(O)c1cc2nc([C@H]3CC[C@H](CN4CC5(CC(CNc6cccc7c6C(=O)N(C6CCC(=O)NC6=O)C7=O)C5)C4)CC3)sc2cc1NC(=O)c1cccc(C(F)(F)F)n1` (stereo partly shown) [I-26], the half-maximal degradation concentration (DC50) is less than 50 nM.
On the same count and under the same terms, then `CN(C[C@H]1CC[C@H](c2nc3cc(C(C)(C)O)c(NC(=O)c4cccc(C(F)(F)F)n4)cc3s2)CC1)[C@H]1CC[C@H](CCNc2cccc3c2C(=O)N(C2CCC(=O)NC2=O)C3=O)CC1` (stereo partly shown) [I-27], with less than 50 nM; and `CN(C[C@H]1CC[C@H](c2nc3cc(C(C)(C)O)c(NC(=O)c4cccc(C(F)(F)F)n4)cc3s2)CC1)[C@H]1CC[C@H](Nc2cccc3c2C(=O)N(C2CCC(=O)NC2=O)C3=O)CC1` (stereo partly shown) [I-28], with less than 50 nM.

The next assay relates to OCI-LY10 cells. Nature of the assay: CTG Cell Viability Assay - OCI-LY10. The assay is classed as cell-based. To be noted: Homo sapiens, 96 h, CellTiter-Glo, 4 days incubation. How it is done: Compound-mediated viability effect on OCI-LY10 or SUDHL-2 was quantitatively determined using the CellTiter-Glo® Luminescent Cell Viability Assay kit from Promega (Catalog number G7570) following manufacturer's recommended procedures. Briefly, OCI-LY10 or SUDHL-2 cells were seeded into 384 well plates (Grenier Bio-One, Catalog number 781080) with a density of 10,000 cells per well. Compounds were then added to the assay plate with final top concentration of 10 μM and 1:3 dilution series with total of 9 doses. The final DMSO concentration was normalized to 0.2%. The assay plates were incubated at 37° C. for 4 days under 5% CO2. Then the assay plate was equilibrated at room temperature for 10 minutes. To determine cell viability, 30 μL CellTiter Glo reagent was added to each well and the assay plate was centrifuged at 1000 rpm for 30 second, incubated at room temperature for 10 min, and analyzed by detecting the luminescence using a multimode plate reader (EnVision 2105, PerkinElmer). The data was then analyzed by software Prism 7.0 from GraphPad and the dose response curves were fit using a three-parameter logistic equation to calculate IC50.
In general terms: Cellular ATP, detected with luciferase, serves as a proxy for viable cell number.
As to `CN(C[C@H]1CC[C@H](c2nc3cc(C(C)(C)O)c(NC(=O)c4cccc(C(F)(F)F)n4)cc3s2)CC1)[C@H]1CC[C@]2(CC1)C[C@@H](CNc1cccc3c1C(=O)N(C1CCC(=O)NC1=O)C3=O)C2` (stereo partly shown) [I-25], the concentration for half-maximal inhibition (IC50) (usually the concentration at which inhibition is half-maximal) is less than 50 nM.
Still for that read-out and setting: then `CC(C)(O)c1cc2nc([C@H]3CC[C@H](CN4CC5(CC(CNc6cccc7c6C(=O)N(C6CCC(=O)NC6=O)C7=O)C5)C4)CC3)sc2cc1NC(=O)c1cccc(C(F)(F)F)n1` (stereo partly shown) [I-26], with 50 to 100 nM.
Still for that read-out and setting: the figure for `CN(C[C@H]1CC[C@H](c2nc3cc(C(C)(C)O)c(NC(=O)c4cccc(C(F)(F)F)n4)cc3s2)CC1)[C@H]1CC[C@H](CCNc2cccc3c2C(=O)N(C2CCC(=O)NC2=O)C3=O)CC1` (stereo partly shown) [I-27] is less than 50 nM; for `CN(C[C@H]1CC[C@H](c2nc3cc(C(C)(C)O)c(NC(=O)c4cccc(C(F)(F)F)n4)cc3s2)CC1)[C@H]1CC[C@H](Nc2cccc3c2C(=O)N(C2CCC(=O)NC2=O)C3=O)CC1` (stereo partly shown) [I-28] it is 100 to 500 nM.
